Test results reported in ChEMBL document CHEMBL3352015, “The binding mechanisms of plasma protein to active compounds in Alismaorientale rhizomes (Alismatis Rhizoma)” (Bioorg Med Chem Lett, 2014).

What was measured:
Type in all cases: ADME, cell-free
[1] = Plasma protein binding in rat at 1020 ug/ml by ultrafiltration method; details: read-out: PPB (converted)
[2] = Plasma protein binding in rat at 408 ug/ml by ultrafiltration method; details: read-out: PPB (converted)
[3] = Binding affinity to Hb in rat plasma by SDS-PAGE analysis
[4] = Plasma protein binding in rat at 816 ug/ml by ultrafiltration method; details: read-out: PPB (converted)
[5] = Binding affinity to Hb in rat plasma at 1.5 x 10' -5 to 2.8 x 10' -5 mmol/l by CD spectroscopy
[6] = Binding affinity to Hb in rat plasma at 2.5 x 10' -6 to 15 x 10' -6 mmol/l by fluorescence emission spectroscopy

fraction unbound at 1020 ug/ml [1]: 0.279 | fraction unbound at 408 ug/ml [2]: 0.3 | Activity [3]: Active | fraction unbound at 816 ug/ml [4]: 0.29 | Activity [5]: Active | Activity [6]: Active
Compound: CC(=O)O[C@H]([C@@H](O)C[C@@H](C)C1=C2C[C@H](O)[C@H]3[C@@]4(C)CCC(=O)C(C)(C)[C@@H]4CC[C@]3(C)[C@@]2(C)CC1)C(C)(C)O
